Measurements as given in patent US5686449A, “1,5-benzodiazepines useful as gastrinor CCK-antagonists” (priority 1994, dated 1997).
Like-named read-outs stand apart in the source and are kept apart here.

Tests used:
[1] = molecular target: T1, CCK-B receptor (Cavia porcellus, UniProt H0VZC5); assay: CCK receptor binding, CCK-B (guinea pig cortex assay)
T1 construct: CCK-B receptor (guinea pig cortex assay); from tissue; host or cells: guinea pig cortex
T1 sequence (H0VZC5 1-426): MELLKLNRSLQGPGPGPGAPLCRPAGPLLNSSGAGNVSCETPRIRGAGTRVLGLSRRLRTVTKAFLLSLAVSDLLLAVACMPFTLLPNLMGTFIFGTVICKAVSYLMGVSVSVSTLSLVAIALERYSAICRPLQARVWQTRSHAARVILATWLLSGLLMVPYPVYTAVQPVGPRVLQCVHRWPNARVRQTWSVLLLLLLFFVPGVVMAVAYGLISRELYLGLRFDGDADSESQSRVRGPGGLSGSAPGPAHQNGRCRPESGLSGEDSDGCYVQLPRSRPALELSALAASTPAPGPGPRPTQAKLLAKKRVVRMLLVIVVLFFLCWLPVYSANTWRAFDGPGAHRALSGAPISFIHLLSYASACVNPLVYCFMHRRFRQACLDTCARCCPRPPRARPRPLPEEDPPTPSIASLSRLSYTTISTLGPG
Procedure: (§1) Exp & Ther. 261, 1056-1063, 1992.
(§2) The binding affinity of the compounds of the invention for the CCK-A receptor (Pancreas Assay) and CCK-B receptor (guinea pig cortex assay) was determined using the procedure of G Dal Forno et al J. Pharmacol. Exp & Ther. 261-1056-1063.

[2] = molecular target: CCK-A receptor; assay: CCK receptor binding, CCK-A (Pancreas Assay)
Procedure: as §1, §2

[3] = CCK-B receptor, guinea pig cortex assay, read-out: pKi CCK-B (converted)

CN1C(=O)C(NC(=O)Nc2ccccc2)C(=O)N(CC23CC4CC(CC(C4)C2)C3)c2ccccc21 (single isomer, unassigned; (-)) [Example 8, (-)-N-[1-(Adamantylmethyl)-2,4-dioxo-5-methyl-2,3,4,5-tetrahydro-1H-1,5-benzodiazepin-3-yl]-N'-phenylurea]
Ki [1, 3]: 1 nM

O=C(Nc1ccccc1)NC1C(=O)N(CCO)c2ccccc2N(CC23CC4CC(CC(C4)C2)C3)C1=O (single isomer, unassigned; (-)) [Example 11, (-)-N-[1-(Adamantylmethyl)-2,4-dioxo-5-(2-hydroxyethyl)-2,3,4,5-tetrahydro-1H-1,5-benzodiazepin-3-yl]-N'-phenylurea]
Ki [1, 3]: 0.251 nM

CC(C)CCN1C(=O)C(NC(=O)Nc2ccccc2)C(=O)N(CC23CC4CC(CC(C4)C2)C3)c2ccccc21 (centres unmarked) [Example 1, N-[1-(1-Adamantylmethyl)-2,4-dioxo-5-(3-methylbut-1-yl)-2,3,4,5-tetrahydro-1H-1,5-benzodiazepin-3-yl]-N'-phenylurea]
pKi CCK-A [2]: 6.54
Ki [1, 3]: 1.38 nM

CC(C)CCN1C(=O)C(NC(=O)Nc2cccc(N(C)C)c2)C(=O)N(CC23CC4CC(CC(C4)C2)C3)c2ccccc21 (centres unmarked) [Example 2, N-[1-(1-Adamantylmethyl)-2,4-dioxo-5-(3-methylbut-1-yl)-2,3,4,5-tetrahydro-1H-1,5-benzodiazepin-3-yl]-N'-[3-(N,N-dimethylamino)phenyl]urea]
pKi CCK-A [2]: 6.02
Ki [1]: 5.62 nM

O=C(Nc1ccccc1)NC1C(=O)N(CC23CC4CC(CC(C4)C2)C3)c2ccccc2N(C2CCCCC2)C1=O (centres unmarked) [Example 3]
pKi CCK-A [2]: 6.25
Ki [1]: 2.4 nM

CC(C)CCN1C(=O)C(NC(=O)Oc2cccc(N(C)C)c2)C(=O)N(CC23CC4CC(CC(C4)C2)C3)c2ccccc21 (centres unmarked) [Example 4, 1-(1-Adamantylmethyl)-3-[3-(N,N-dimethylamino)phenyloxycarbonyl]amino-2,4-dioxo-5-(3-methylbut-1-yl)-2,3,4,5-tetrahydro-1H-1,5-benzodiazepine]
pKi CCK-A [2]: 5.80
Ki [1]: 7.59 nM

O=C(Nc1ccccc1)NC1C(=O)N(CCO)c2ccccc2N(CC23CC4CC(CC(C4)C2)C3)C1=O (centres unmarked) [Example 9, N-[1-(Adamantylmethyl)-2,4-dioxo-5-(2-hydroxyethyl)-2,3,4,5-tetrahydro-1H-1,5-benzodiazepin-3-yl]-N'-phenylurea]
Ki [1, 3]: 1.41 nM

Cc1cccc(NC(=O)NC2C(=O)N(CCO)c3ccccc3N(CC34CC5CC(CC(C5)C3)C4)C2=O)c1 (centres unmarked) [Example 10]
pKi CCK-A [2]: 6.8
Ki [1, 3]: 0.398 nM

CCCCN1C(=O)C(NC(=O)Nc2ccc(OC)cc2)C(=O)N(CCC(C)C)c2ccccc21 (centres unmarked) [Example 12]
pKi CCK-A [2]: 6.16
Ki [1, 3]: 2.04 nM

O=C(Nc1ccccc1)NC1C(=O)N(CCCO)c2ccccc2N(CC23CC4CC(CC(C4)C2)C3)C1=O (centres unmarked) [Example 14, N-[1-(Adamantane-1-methyl)-2,4-dioxo-5-(3-hydroxypropyl)-2,3,4,5-tetrahydro-1H-1,5-benzodiazepin-3-yl]-N'-phenylurea]
pKi CCK-A [2]: 6.09
Ki [1, 3]: 0.389 nM
